Source: publication PMC7044277 (Nature Communications, 2020)
Values joined by “and” are separate entries in the source; they are usually repeats but may differ in a detail not shown here. Equal entries are not always repeated. Where two headings read alike, the source gives them in different places.

Tests used:
320 non-olfactory GPCRs = assay type: cell-based; set-up: GPCRome screening signal at PTGIR / GPCRome screening signal at PTH1R / GPCRome screening signal at PTH2R / GPCRome screening signal at QRFP / GPCRome screening signal at RXFP2 / GPCRome screening signal at RXFP3 / GPCRome screening signal at RXFP4 / GPCRome screening signal at S1PR2 / GPCRome screening signal at S1PR3 / GPCRome screening signal at S1PR4 / GPCRome screening signal at S1PR5 / GPCRome screening signal at SCTR / GPCRome screening signal at SSTR2 / GPCRome screening signal at SSSTR / GPCRome screening signal at SSTR4 / GPCRome screening signal at SSTR5 / GPCRome screening signal at SUCNR1 / GPCRome screening signal at TA1 / GPCRome screening signal at TAAR2 / GPCRome screening signal at TAAR5 / GPCRome screening signal at TAAR6 / GPCRome screening signal at TAAR8 / GPCRome screening signal at TACR1 / GPCRome screening signal at TACR2 / GPCRome screening signal at TACR3 / GPCRome screening signal at TBXA2R / GPCRome screening signal at TSHR / GPCRome screening signal at UTS2R / GPCRome screening signal at VIPR2 / GPCRome screening signal at GPR68 no V2 Tail / GPCRome screening signal at GRM2 / GPCRome screening signal at GRM3: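 fold over basal response of each receptor without drug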; conditions: for GPCRome agonism screen response: replicate values, Fig_4g;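 as to GPCRome agonism screen response: fold over basal response of each receptor without drug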
DRD3 [1] = biological target: T1, DRD3 (Homo sapiens, UniProt P35462); test: Gαi/o-mediated cAMP inhibition (GloSensor); assay type: cell-based; conditions: DRD3, cAMP inhibition
T1 sequence (P35462 whole entry): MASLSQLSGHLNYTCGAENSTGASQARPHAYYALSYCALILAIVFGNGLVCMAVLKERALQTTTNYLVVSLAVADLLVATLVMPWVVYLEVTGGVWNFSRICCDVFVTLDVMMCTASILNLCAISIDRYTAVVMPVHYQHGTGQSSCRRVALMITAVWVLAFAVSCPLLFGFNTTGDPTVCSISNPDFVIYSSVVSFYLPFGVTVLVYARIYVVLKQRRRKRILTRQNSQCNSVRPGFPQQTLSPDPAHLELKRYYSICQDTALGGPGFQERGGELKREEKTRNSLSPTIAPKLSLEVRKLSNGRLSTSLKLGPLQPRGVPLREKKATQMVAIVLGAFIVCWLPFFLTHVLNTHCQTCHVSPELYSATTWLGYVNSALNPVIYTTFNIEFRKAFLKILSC

DRD3 wild-type = DRD3 wild-type (Homo sapiens, UniProt P35462); test: Radioligand competition binding, [3H]-N-methylspiperone; conditions: DRD3 wild-type; read-out: pKi ± SEM (converted)
Chain of DRD3 wild-type (P35462 whole entry): as above

[2] = biological target: T2, DRD4 (D4.4 variant) wild-type (Homo sapiens, UniProt P21917); test: as above; conditions: DRD4; [3H]-methylspiperone (0.8-1.0 nM); read-out: Ki
T2 sequence (P21917 1-419): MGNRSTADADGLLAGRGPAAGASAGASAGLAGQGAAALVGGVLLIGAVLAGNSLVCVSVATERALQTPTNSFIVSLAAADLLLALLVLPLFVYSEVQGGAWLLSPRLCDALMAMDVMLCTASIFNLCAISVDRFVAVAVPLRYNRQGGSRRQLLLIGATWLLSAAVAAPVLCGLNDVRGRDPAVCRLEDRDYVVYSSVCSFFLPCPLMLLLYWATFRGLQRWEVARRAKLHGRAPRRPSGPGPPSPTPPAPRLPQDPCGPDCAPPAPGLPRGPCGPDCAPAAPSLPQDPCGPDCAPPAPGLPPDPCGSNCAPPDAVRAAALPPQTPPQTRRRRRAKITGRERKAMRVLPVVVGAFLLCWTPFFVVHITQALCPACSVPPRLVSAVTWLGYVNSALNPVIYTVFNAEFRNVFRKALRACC

DRD3 [3] = biological target: T1, DRD3; test: β-arrestin2 recruitment (Tango); assay type: cell-based; conditions: DRD3, Tango
DRD2 F1103.28L = biological target: T3, DRD2 F1103.28L (Homo sapiens, UniProt P14416, F110L); test: Gαi/o-mediated cAMP inhibition (GloSensor), mutant; assay type: cell-based
T3 construct: expressed in transfected cells; host or cells: HEK293T (ATCC CRL-11268)
T3 sequence (P14416 whole entry F110L): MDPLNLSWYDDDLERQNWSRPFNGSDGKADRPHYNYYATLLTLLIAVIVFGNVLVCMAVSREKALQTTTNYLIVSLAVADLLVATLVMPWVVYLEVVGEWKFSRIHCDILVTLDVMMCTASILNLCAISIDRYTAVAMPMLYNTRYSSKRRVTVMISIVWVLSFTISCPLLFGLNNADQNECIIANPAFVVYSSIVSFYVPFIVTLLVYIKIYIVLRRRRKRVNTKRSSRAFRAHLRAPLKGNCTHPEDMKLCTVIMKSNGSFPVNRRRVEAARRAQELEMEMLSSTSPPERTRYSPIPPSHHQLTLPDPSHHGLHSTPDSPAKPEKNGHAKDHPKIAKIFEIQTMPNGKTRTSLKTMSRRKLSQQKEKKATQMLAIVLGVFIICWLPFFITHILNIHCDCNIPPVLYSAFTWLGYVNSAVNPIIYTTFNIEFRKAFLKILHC

[4] = tested on: serotonin receptor of Fig_S10g (subtype not named); test: β-arrestin2 recruitment (Tango), agonist activity, panel Fig_S10g (serotonin as reference; receptor not given); assay type: cell-based, human
[5] = tested on: serotonin receptor of Fig_S10i (subtype not given); test: β-arrestin2 recruitment (Tango), agonist activity, source data Fig_S10i; assay type: cell-based, human; conditions: drug alone
5HT2A = 5HT2A (Homo sapiens, UniProt P28223); test: β-arrestin2 recruitment (Tango); assay type: cell-based; conditions: single replicate values
Chain of 5HT2A (P28223 whole entry): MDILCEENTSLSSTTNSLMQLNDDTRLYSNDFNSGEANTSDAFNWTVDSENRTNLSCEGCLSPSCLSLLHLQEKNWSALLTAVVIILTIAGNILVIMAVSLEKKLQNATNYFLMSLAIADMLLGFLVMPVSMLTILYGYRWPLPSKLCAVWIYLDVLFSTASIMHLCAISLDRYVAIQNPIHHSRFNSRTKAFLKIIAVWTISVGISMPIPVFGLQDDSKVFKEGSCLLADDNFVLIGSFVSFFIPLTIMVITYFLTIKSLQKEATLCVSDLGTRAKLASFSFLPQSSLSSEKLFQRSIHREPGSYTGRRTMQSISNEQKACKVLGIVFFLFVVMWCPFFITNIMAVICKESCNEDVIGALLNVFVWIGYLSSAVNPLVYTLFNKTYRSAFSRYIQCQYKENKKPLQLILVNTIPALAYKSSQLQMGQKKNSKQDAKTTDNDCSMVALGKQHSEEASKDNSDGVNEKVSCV

5HT1A = biological target: T4, 5HT1A (Homo sapiens, UniProt P08908); test: β-arrestin2 recruitment (Tango); assay type: cell-based; conditions: Fig_S10f, single replicates
T4 construct: expressed in transfected cells; host or cells: HTLA cells expressing TEV-fused β-arrestin2
T4 sequence (P08908 1-422): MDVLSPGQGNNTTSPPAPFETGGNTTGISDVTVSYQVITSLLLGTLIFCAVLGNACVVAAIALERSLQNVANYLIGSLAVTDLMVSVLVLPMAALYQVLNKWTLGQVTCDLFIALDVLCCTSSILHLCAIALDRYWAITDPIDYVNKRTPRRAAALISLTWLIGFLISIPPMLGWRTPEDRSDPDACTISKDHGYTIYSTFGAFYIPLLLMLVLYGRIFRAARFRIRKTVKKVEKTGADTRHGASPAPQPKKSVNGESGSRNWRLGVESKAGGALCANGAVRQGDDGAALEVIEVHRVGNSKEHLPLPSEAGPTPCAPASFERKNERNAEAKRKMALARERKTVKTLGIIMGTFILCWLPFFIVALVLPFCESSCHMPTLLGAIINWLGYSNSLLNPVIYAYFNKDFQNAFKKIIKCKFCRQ

[6] = read-out: Emax relative to quinpirole response

For `CCOc1ccccc1CCC(C)NCC1(O)CCCCC1.Cl` (racemic) [Fig_5f], the “GPCRome screening signal at GPR68 no V2 Tail” value (320 non-olfactory GPCRs; receptor GPR68 no V2 Tail, Fig_5f, single replicate values) was 1.613 and 0.9285 and 0.7993 and 0.365, the “GPCRome screening signal at QRFP” value (320 non-olfactory GPCRs; receptor QRFP, Fig_5f, single replicate values) was 1.818 and 1.297 and 0.5847 and 0.9504 and the “GPCRome screening signal at SSSTR” value (320 non-olfactory GPCRs; receptor SSSTR, Fig_5f, single replicate values) was 1.07 and 0.3317 and 0.4095 and 0.9006.
`CCOc1cccc2cc(C(C)NCC3(O)CCCCC3)oc12` (stereo not drawn) [O4LE6] showed an EC50 (DRD3 [1]; agonist, read-out: EC50 ± SEM) of 5.09 ± 0.16 nM, an Emax (DRD3 [1]; [6]) of 62.4% and a Ki (DRD3 wild-type) of 224 nM. For the same molecule, the “GPCRome agonism screen response” value (320 non-olfactory GPCRs; receptor LTB4R2B) was 0.6938 and 0.9232 and 0.5075, the “GPCRome agonism screen response” value (320 non-olfactory GPCRs; receptor NPS) was 0.4686 and 1.378 and 0.7119 and 0.6607 and the “GPCRome agonism screen response” value (320 non-olfactory GPCRs; receptor PK1) was 0.8997 and 0.9125 and 0.8846 and 0.857. The “GPCRome agonism screen response” value (320 non-olfactory GPCRs; receptor PRRP) was 0.431 and 1.1359 and 1.866 and 0.5549, the “GPCRome agonism screen response” value (320 non-olfactory GPCRs; receptor QRFP) was 0.8017 and 1.022 and 0.9768 and 1 and the “GPCRome agonism screen response” value (320 non-olfactory GPCRs; receptor SSSTR) was 0.8501 and 0.9752 and 2.465 and 0.6314. It also gave a Ki [2] greater than 10000 nM, an EC50 (DRD3 [3]; read-out: EC50 ± SEM) of 708.5 ± 6.3 nM and an Emax (DRD3 [3]; [6]) of 15.8%. The EC50 (DRD2 F1103.28L; DRD2 F1103.28L (b138 head prints DRD2 F1063.28L)) was 11.3 ± 2.27 nM and the Emax (DRD2 F1103.28L; read-out: Emax relative to quinpirole response, DRD2 F1103.28L) was 61%.
For `NCCc1c[nH]c2ccc(O)cc12` [serotonin], the “response, single replicate of concentration-response curve” value ([4]; Log[Drug] -8, drug alone) was 25.2624 and 2.418 and -0.9864 and -1.203, the “response, single replicate of concentration-response curve” value ([4]; Log[Drug] -8.52, drug alone) was 25.8336 and 6.58 and 3.873 and 4.678 and -1.548 and 7.766 and 9.13 and -0.6727 and -11.3553 and -6.415 and -5.731 and -10.9031 and the “response, single replicate of concentration-response curve” value ([4]; Log[Drug] -9, drug alone) was 10.8032 and 1.6368 and -4.3076 and 0.1698 and 3.269 and 3.74 and 1.924 and 0.05671 and -7.517 and 1.634 and 12.5106 and -9.089. The “response, single replicate of concentration-response curve” value ([4]; Log[Drug] -9.52, drug alone) was 7.867 and 1.536 and -2.919 and -4.095 and 0.1351 and -9.62 and 29.2497 and 12.5325 and 5.929 and 12.1786 and -19.689 and -3.037, the “response, single replicate of concentration-response curve” value ([4]; Log[Drug] -10, drug alone) was 13.3168 and 3.318 and 3.578 and -7.852 and 7.397 and -7.7805 and -4.613 and 22.4428 and -0.2757 and -9.974 and -10.1372 and -5.303 and the “response, single replicate of concentration-response curve” value ([4]; Log[Drug] -10.52, drug alone) was -2.613 and 10.3391 and -3.556 and 0.8157 and -5.415 and -4.823 and 18.6922 and -6.036 and 3.52 and 5.655 and -15.149 and -15.6819. For the same molecule, the “response, single replicate of concentration-response curve” value ([4]; Log[Drug] -11, drug alone) was 7.973 and 11.7127 and -1.724 and -0.1913 and 3.65 and 5.648 and -0.1936 and 0.6531 and 0.8995 and 27.444 and 32.0015 and 10.1517, the “response, single replicate of concentration-response curve” value ([4]; Log[Drug] -11.52, drug alone) was 21.6155 and 10.2673 and -4.337 and 2.007 and 0.7121 and -12.0608 and 20.4384 and 18.8721 and -0.9836 and 23.865 and -4.732 and 10.0527 and the “response, single replicate of concentration-response curve” value ([4]; Log[Drug] -12, drug alone) was 27.8009 and 4.255 and 0.08804 and -4.341 and 18.1882 and 2.442 and 25.1178 and 36.1309 and 7.918 and 30.4435 and -6.616 and 17.9883. For the same molecule, the “response, single replicates of the concentration-response curve” value ([5]; Log[Drug] -11.52) was -4.3954 and -4.987 and -4.556 and 52.5363 and 8.29 and -6.9 and -8.356 and -5.164 and -18.2115, the “response, single replicates of the concentration-response curve” value ([5]; Log[Drug] -12) was 5.024 and 5.16 and -7.062 and 21.8387 and 17.0887 and 8.533 and the “Fig_S10k dose-response, drug alone (agonist mode), β-arrestin2 recruitment” value (from here on “Fig_S10k dose-response, drug alone”) (5HT2A; Log[Drug] -7) was 2.15 and 3.679 and 4.811 and -0.4868 and 5.6493 and -0.2054. For the same molecule, the “Fig_S10k dose-response, drug alone” value (5HT2A; Log[Drug] -7.52) was -0.7997 and 2.965 and 17.8531 and -0.2054 and -0.763 and 5.3131 and 4.228 and 3.612 and 4.7477, the “Fig_S10k dose-response, drug alone” value (5HT2A; Log[Drug] -8) was -3.989 and -1.195 and 1.849 and -1.365 and -2.184 and 9.999 and -0.5868 and 4.719 and the “Fig_S10k dose-response, drug alone” value (5HT2A; Log[Drug] -8.52) was -0.2128 and 3.793 and -1.972 and 2.067 and -0.1908 and -0.1834 and -1.527 and -2.08 and -0.286 and -0.3848 and 2.472 and 0.1395. For the same molecule, the “Fig_S10k dose-response, drug alone” value (5HT2A; Log[Drug] -9) was 2.751 and -4.014 and -3.749 and 5.589 and 0.3815 and 2.971 and 0.02275 and 2.73 and 0.208 and 0.558 and 0.5339, the “Fig_S10k dose-response, drug alone” value (5HT2A; Log[Drug] -9.52) was 1.871 and 1.852 and -0.4489 and -0.2054 and 2.157 and -3.113 and 1.313 and -0.39 and 0.00481 and 0.7312 and 5.479 and the “Fig_S10k dose-response, drug alone” value (5HT2A; Log[Drug] -10) was 0.9831 and -1.745 and 1.865 and 2.4358 and -0.7924 and 0.9424 and -2.603 and -1.547 and -0.3848 and 0.8707 and 19.7653. For the same molecule, the “Fig_S10k dose-response, drug alone” value (5HT2A; Log[Drug] -10.52) was 1.062 and 0.5626 and 5.943 and 0.675 and 1.189 and 0.1462 and -0.6434 and -0.1876 and 0.3223, the “Fig_S10k dose-response, drug alone” value (5HT2A; Log[Drug] -11) was -1.391 and 0.03161 and 5.943 and 0.3155 and -1.667 and -1.459 and -0.8081 and the “Fig_S10k dose-response, drug alone” value (5HT2A; Log[Drug] -11.52) was 2.458 and 6.164 and 3.035 and 8.661 and 1.783 and -1.534 and 0.9332. The “Fig_S10k dose-response, drug alone” value (5HT2A; Log[Drug] -12) was 0.4182 and -4.489 and -0.5209 and 0.1755 and -2.72 and 0.5037 and -1.135 and 0.1924 and 0.9524, the “β-arrestin2 recruitment response, agonist mode (normalized)” value (5HT1A; Log[Drug] -9.52) was 0.051 and -0.6094 and 0.4564 and 0.9983 and -0.6725 and -0.3119 and 0.3423 and -0.09315 and -0.541 and 0.6114 and the “β-arrestin2 recruitment response, agonist mode (normalized)” value (5HT1A; Log[Drug] -10) was -0.5013 and -1.706 and 4.314 and 0.8312 and -0.5054 and -0.4971 and 1.761 and 0.86 and 0.493 and 1.8886 and 0.4834. For the same molecule, the “β-arrestin2 recruitment response, agonist mode (normalized)” value (5HT1A; Log[Drug] -10.52) was 0.008354 and -1.487 and -0.1989 and 2.088 and -0.6683 and 3.151 and -0.06065 and -0.5318 and -0.2913, the “β-arrestin2 recruitment response, agonist mode (normalized)” value (5HT1A; Log[Drug] -11) was -0.8312 and 0.8491 and 0.1249 and -0.3544 and 0.3342 and 1.248 and -0.5329 and 0.3 and -1.04 and 0.4834 and the “β-arrestin2 recruitment response, agonist mode (normalized)” value (5HT1A; Log[Drug] -11.52) was -0.8271 and 2.483 and -0.08669 and -0.3213 and -0.5138 and 3.162 and -0.4376 and 0.6466 and -0.1376 and 0.477 and 1.383 and 1.636. For the same molecule, the “β-arrestin2 recruitment response, agonist mode (normalized)” value (5HT1A; Log[Drug] -12) was -0.1546 and 0.0408 and 0.03825 and -0.07649 and -0.33 and -0.5096 and -0.8188 and 0.4787 and -0.4787 and 6.658 and -0.3041 and 1.905.
